Source: publication PMC12687453, “Plasma membrane folate transport in fungi and plants is mediated by members of the oligopeptide transporter (OPT) family” (Biochemical Journal, 2025)

What was measured:
Assay in all cases: LC-MS/MS cellular uptake versus vector control
Type in all cases: cell-based
AtOPT6 = molecular target: T1, AtOPT6 (Arabidopsis thaliana, UniProt Q9T095); settings: 100 uM folinic acid, opt1-delta cells, pH 5.5, 30 °C, 5 min
T1 construct: gene OPT6; cDNA from Arabidopsis Biological Resource Center, TEF promoter plasmid, in S. cerevisiae opt1-delta cells
T1 sequence (Q9T095 1-736): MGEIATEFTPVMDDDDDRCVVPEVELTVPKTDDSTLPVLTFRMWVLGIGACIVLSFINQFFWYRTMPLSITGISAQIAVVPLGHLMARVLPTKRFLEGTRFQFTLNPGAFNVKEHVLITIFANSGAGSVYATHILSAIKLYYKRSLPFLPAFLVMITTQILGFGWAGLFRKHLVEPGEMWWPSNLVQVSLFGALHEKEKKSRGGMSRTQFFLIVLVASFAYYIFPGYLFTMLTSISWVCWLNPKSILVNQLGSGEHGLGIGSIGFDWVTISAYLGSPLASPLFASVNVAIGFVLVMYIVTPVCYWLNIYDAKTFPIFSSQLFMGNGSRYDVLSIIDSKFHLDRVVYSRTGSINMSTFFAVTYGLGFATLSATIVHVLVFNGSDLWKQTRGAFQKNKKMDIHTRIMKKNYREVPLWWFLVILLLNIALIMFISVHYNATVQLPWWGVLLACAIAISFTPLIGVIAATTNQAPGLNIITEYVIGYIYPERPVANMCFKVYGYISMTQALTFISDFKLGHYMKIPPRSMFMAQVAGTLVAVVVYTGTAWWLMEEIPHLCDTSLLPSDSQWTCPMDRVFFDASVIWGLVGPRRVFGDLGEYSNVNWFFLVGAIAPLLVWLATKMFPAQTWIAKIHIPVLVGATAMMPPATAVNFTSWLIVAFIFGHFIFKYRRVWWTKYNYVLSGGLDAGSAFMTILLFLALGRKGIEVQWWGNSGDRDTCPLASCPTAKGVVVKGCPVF

AtOPT4 = molecular target: T2, AtOPT4 (Arabidopsis thaliana, UniProt Q9FME8); settings: 100 uM folinic acid, opt1-delta cells, pH 5.5, 30 °C, 5 min
T2 construct: gene OPT4; cDNA from Arabidopsis Biological Resource Center, TEF promoter plasmid, in S. cerevisiae opt1-delta cells
T2 sequence (Q9FME8 2-729): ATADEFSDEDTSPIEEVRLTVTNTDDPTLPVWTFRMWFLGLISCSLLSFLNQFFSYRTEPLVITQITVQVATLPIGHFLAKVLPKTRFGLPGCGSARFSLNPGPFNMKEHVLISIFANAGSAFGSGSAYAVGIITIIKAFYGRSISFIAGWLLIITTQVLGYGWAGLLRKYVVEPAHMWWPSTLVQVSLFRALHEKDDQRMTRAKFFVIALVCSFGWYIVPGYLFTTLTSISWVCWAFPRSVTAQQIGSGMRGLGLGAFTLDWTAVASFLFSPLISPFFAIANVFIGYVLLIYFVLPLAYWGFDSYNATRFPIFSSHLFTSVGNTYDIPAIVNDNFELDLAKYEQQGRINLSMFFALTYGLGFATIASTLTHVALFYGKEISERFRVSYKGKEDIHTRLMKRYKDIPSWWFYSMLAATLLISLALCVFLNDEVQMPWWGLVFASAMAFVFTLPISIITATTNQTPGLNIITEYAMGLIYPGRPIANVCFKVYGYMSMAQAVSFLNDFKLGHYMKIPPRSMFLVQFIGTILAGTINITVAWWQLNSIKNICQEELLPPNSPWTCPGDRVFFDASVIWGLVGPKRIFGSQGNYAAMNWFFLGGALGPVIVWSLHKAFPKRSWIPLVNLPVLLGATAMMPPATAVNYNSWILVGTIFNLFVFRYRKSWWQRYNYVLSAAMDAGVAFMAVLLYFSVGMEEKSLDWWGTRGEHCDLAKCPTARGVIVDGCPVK

AtOPT2 = molecular target: T3, AtOPT2 (Arabidopsis thaliana, UniProt O04514); settings: 100 uM folinic acid, opt1-delta cells, pH 5.5, 30 °C, 5 min
T3 construct: gene OPT2; cDNA from Arabidopsis Biological Resource Center, TEF promoter plasmid, in S. cerevisiae opt1-delta cells
T3 sequence (O04514 1-734): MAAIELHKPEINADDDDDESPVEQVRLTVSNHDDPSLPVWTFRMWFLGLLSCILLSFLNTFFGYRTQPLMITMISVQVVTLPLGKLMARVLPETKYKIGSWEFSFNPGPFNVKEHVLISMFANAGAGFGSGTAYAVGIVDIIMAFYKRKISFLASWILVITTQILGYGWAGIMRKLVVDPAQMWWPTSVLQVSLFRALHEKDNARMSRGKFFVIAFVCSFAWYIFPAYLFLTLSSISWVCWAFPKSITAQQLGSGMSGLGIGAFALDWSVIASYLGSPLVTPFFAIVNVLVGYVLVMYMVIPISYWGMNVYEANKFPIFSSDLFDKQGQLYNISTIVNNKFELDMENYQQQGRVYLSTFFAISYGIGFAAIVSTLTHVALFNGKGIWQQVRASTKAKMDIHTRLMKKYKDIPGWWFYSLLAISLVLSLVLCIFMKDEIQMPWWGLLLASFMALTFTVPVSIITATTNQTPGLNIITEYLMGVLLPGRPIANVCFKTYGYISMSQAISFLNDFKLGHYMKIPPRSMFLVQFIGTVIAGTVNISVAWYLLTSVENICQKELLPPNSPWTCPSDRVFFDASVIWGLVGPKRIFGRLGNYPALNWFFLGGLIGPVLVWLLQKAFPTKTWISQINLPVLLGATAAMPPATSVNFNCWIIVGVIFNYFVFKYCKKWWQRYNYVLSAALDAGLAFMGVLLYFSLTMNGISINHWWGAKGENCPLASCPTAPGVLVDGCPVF

AfOPTH = molecular target: T4, AfOPTH (Aspergillus fumigatus, UniProt Q4WAD5); settings: 100 uM folinic acid, opt1-delta cells, pH 5.5, 30 °C, 5 min
T4 construct: gene AFUA_7G00910; plasmid-expressed in S. cerevisiae opt1-delta cells (MET25 promoter; TEF)
T4 sequence (Q4WAD5 1-757): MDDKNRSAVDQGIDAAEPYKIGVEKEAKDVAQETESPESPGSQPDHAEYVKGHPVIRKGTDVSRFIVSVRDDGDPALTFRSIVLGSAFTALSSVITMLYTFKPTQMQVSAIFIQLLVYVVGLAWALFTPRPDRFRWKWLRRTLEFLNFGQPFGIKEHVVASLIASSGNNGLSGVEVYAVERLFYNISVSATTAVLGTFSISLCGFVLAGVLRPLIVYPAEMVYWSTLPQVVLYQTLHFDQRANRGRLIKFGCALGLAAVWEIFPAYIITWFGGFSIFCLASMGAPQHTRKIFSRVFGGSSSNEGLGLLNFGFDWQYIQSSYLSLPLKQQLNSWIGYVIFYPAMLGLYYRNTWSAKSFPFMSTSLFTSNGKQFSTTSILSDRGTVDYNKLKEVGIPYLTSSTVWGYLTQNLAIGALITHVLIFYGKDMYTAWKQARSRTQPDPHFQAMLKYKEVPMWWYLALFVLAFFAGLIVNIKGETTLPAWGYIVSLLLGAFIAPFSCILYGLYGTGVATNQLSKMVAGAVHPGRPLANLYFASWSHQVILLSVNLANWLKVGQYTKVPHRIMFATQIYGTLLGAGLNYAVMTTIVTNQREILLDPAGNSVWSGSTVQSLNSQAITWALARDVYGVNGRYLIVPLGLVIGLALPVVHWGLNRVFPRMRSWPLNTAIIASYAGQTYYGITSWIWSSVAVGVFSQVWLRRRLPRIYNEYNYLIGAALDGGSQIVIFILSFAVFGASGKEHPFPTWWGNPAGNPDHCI

CaOPT1 = molecular target: T5, CaOPT1 (Candida albicans, UniProt Q5YBA3); settings: 100 uM folinic acid, opt1-delta cells, pH 5.5, 30 °C, 5 min
T5 construct: gene OPT1; TEF promoter plasmid, expressed in S. cerevisiae opt1-delta cells
T5 sequence (Q5YBA3 1-783): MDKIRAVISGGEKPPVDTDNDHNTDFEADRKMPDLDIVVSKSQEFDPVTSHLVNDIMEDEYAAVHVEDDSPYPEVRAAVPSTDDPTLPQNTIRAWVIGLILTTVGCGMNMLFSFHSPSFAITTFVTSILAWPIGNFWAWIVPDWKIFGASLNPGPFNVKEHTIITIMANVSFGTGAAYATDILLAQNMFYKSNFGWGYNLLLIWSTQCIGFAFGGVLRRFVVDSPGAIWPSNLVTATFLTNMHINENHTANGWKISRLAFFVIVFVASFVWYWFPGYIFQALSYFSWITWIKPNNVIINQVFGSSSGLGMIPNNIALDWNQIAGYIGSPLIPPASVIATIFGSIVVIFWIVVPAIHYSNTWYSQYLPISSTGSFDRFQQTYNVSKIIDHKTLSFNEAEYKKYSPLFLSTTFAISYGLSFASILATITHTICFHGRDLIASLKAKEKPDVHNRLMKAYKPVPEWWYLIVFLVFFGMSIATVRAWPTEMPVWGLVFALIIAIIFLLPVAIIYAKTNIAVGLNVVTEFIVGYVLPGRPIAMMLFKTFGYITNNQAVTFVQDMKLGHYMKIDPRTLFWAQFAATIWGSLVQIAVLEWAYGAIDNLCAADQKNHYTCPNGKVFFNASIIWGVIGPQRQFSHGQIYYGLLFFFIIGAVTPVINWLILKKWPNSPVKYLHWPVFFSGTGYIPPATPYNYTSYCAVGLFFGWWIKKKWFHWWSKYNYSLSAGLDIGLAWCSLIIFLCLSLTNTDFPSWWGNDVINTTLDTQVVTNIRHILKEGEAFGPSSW

Opt1p/Hgt1p (ScOPT1) = molecular target: T6, Opt1p/Hgt1p (ScOPT1) (Saccharomyces cerevisiae, UniProt P40897); settings: 100 uM folinic acid, opt1-delta cells, pH 5.5, 30 °C; time course
T6 construct: gene OPT1; full-length plasma membrane transporter, TEF promoter plasmid, in S. cerevisiae opt1-delta cells
T6 sequence (P40897 1-799): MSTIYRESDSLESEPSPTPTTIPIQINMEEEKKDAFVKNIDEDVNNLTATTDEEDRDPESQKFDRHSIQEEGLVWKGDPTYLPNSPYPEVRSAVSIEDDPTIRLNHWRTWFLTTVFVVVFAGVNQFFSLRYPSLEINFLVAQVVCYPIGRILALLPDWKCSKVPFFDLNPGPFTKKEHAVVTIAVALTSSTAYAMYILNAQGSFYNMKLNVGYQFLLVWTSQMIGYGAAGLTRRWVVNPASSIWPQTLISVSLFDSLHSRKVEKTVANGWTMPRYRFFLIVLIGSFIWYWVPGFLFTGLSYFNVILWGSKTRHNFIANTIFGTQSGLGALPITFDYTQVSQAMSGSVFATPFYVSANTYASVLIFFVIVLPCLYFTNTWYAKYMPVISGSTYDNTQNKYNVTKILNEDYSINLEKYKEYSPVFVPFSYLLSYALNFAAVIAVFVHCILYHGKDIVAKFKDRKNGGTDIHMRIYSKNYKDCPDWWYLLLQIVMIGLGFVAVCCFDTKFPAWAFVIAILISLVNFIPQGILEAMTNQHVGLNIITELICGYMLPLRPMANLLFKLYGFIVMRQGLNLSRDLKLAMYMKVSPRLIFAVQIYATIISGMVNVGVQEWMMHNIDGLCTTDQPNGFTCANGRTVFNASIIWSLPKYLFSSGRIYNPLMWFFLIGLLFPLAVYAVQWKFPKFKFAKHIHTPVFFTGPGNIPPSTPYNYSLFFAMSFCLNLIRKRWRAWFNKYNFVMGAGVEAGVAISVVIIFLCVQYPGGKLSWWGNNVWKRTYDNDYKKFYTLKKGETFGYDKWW

For `Nc1nc2c(c(=O)[nH]1)N(C=O)[C@@H](CNc1ccc(C(=O)N[C@@H](CCC(=O)O)C(=O)O)cc1)CN2` [folinic acid], the “LC-MS/MS cellular uptake versus vector control” value (AtOPT6) was “AtOPT2 and AtOPT4 and even AtOPT6 contribute to folate transport”, the “LC-MS/MS cellular uptake versus vector control” value (AtOPT4) was “AtOPT2 and AtOPT4 and even AtOPT6 contribute to folate transport” and the “LC-MS/MS cellular uptake versus vector control” value (AtOPT2) was “AtOPT2 and AtOPT4 and even AtOPT6 contribute to folate transport”. The “LC-MS/MS cellular uptake versus vector control” value (AfOPTH) was “carried out uptake experiments with AfOPTH to confirm its ability to transport folates”, the “LC-MS/MS cellular uptake versus vector control” value (CaOPT1) was “confirmed the ability of C. albicans CaOPT1 to transport folate by uptake assays” and the “LC-MS/MS cellular uptake versus vector control” value (Opt1p/Hgt1p (ScOPT1)) was “a rapid increase in intracellular folinic acid was observed in the cells bearing TEF-OPT1 plasmid”.
